IC50 data for 22 compounds are collected here from ChEMBL document CHEMBL4219205, “Utilizing a structure-based docking approach to develop potent G protein-coupled receptor kinase (GRK) 2 and 5 inhibitors” (Bioorg Med Chem Lett, 2018).

Assay [1] concerns the target T1, Beta-adrenergic receptor kinase 1 (Homo sapiens, UniProt P25098).
T1 sequence (P25098 whole entry): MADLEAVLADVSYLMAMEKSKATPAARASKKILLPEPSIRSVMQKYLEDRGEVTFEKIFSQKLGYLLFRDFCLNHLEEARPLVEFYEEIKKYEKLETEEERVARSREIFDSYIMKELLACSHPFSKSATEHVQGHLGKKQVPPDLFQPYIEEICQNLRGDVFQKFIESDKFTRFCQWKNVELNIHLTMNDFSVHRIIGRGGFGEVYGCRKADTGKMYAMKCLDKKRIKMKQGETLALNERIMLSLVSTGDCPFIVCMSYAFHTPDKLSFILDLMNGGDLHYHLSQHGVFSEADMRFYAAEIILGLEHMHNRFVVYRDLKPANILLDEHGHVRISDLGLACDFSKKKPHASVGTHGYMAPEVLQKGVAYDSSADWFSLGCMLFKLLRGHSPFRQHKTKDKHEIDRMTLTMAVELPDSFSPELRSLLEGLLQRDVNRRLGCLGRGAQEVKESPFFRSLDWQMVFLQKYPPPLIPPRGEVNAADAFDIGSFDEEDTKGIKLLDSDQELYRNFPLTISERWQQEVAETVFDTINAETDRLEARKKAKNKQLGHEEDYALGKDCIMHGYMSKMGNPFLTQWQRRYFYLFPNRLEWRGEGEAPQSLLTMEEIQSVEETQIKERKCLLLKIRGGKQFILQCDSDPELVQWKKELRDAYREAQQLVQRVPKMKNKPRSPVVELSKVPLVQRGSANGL
In words: Inhibition of GRK2 (unknown origin) preincubated for 10 mins followed by peptide substrate and ATP addition measured after 1 hr by TR-FRET assay. A general note: TR-FRET usually uses a lanthanide donor and a delayed reading to cut background.

The next assay concerns the target T2, Rhodopsin kinase GRK1 (Homo sapiens, UniProt Q15835).
T2 sequence (Q15835 whole entry): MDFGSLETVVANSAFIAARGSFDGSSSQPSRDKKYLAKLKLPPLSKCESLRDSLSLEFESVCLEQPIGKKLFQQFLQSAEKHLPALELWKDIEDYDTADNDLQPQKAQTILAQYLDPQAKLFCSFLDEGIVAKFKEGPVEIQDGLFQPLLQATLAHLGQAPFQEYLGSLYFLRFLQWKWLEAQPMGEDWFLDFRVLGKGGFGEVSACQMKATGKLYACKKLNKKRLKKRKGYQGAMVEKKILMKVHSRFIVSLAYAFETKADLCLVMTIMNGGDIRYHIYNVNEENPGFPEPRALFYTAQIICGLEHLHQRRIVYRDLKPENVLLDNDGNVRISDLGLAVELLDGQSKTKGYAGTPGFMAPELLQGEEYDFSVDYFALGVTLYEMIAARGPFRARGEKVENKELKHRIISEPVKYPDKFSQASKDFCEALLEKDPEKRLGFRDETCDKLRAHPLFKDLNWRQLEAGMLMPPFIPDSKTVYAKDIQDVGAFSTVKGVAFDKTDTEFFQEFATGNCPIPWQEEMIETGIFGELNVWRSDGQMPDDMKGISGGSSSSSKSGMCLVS
In words: Inhibition of GRK1 (unknown origin) preincubated for 10 mins followed by peptide substrate and ATP addition measured after 1 hr by TR-FRET assay.

The target in assay [2] is G protein-coupled receptor kinase 5 (Homo sapiens, UniProt P34947). In words: Inhibition of GRK5 (unknown origin) preincubated for 10 mins followed by peptide substrate and ATP addition measured after 1 hr by TR-FRET assay.
G protein-coupled receptor kinase 5, sequence (P34947 whole entry): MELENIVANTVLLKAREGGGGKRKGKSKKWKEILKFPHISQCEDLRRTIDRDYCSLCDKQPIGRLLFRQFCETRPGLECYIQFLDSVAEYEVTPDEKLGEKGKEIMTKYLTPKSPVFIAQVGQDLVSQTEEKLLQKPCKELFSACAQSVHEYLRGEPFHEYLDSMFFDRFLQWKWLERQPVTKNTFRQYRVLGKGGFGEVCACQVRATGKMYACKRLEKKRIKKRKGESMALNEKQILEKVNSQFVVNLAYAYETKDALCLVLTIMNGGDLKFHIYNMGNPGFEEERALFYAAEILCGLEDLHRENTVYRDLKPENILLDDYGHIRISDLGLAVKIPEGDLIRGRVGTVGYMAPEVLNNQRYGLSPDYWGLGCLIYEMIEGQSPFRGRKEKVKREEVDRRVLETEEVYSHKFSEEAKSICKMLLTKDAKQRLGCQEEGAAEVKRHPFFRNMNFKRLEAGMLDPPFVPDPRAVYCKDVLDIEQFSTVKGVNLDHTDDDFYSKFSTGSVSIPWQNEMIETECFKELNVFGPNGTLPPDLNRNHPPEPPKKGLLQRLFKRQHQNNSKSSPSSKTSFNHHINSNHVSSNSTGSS

For orientation: IC50 means the concentration that inhibits the measured activity by half. In the case of `CC1=C(C(=O)Nc2ccc3[nH]ncc3c2)C(c2ccc(F)c(C(=O)NC3CN4CCC3CC4)c2)NC(=O)N1` (stereo not drawn), the IC50 is 0.5 µM in assay [1] and more than 100 µM against Rhodopsin kinase GRK1.

As to `CC1=C(C(=O)Nc2ccc3[nH]ncc3c2)C(c2ccc(F)c(CC(=O)N(CCCO)CCCO)c2)NC(=O)N1` (stereo not drawn), the 50% inhibitory concentration (IC50) is 0.75 µM in assay [1] and more than 100 µM on Rhodopsin kinase GRK1. Turning to `CC1=C(C(=O)Nc2ccc3[nH]ncc3c2)C(c2ccc(F)c(C(=O)NC3CC4CCC3(C)C4(C)C)c2)NC(=O)N1` (stereo not drawn), the IC50 is more than 100 µM in assay [2], 4.6 µM in assay [1] and more than 100 µM on Rhodopsin kinase GRK1. As for `CCc1nc(CNC(=O)c2cc(C3NC(=O)NC(C)=C3C(=O)Nc3ccc4[nH]ncc4c3)ccc2F)no1` (stereo not drawn), the IC50 against Rhodopsin kinase GRK1 is 3 µM. With `C#CCN(CC(C)C)C(=O)Cc1cc(C2NC(=O)NC(C)=C2C(=O)Nc2ccc3[nH]ncc3c2)ccc1F` (stereo not drawn), the IC50 in assay [2] was 13 µM; in assay [1], 2.4 µM; on Rhodopsin kinase GRK1 it was more than 100 µM. The corresponding values for `CC1=C(C(=O)Nc2ccc3[nH]ncc3c2)C(c2ccc(F)c(CCC(=O)N(CC(C)C)C(C)C)c2)NC(=O)N1` (stereo not drawn) are more than 100 µM, 12 µM and more than 100 µM. Regarding `CC1=C(C(=O)Nc2ccc3[nH]ncc3c2)C(c2ccc(F)c(C(=O)NCC(C)N3CCCCCC3)c2)NC(=O)N1` (stereo not drawn), the IC50 was 1.2 µM in assay [1] and more than 100 µM against Rhodopsin kinase GRK1. For `CC1=C(C(=O)Nc2ccc3[nH]ncc3c2)C(c2ccc(F)c(CC(=O)N(C)Cc3nc(C)c[nH]3)c2)NC(=O)N1` (stereo not drawn) the same measures were 2 µM and more than 100 µM. Consider `COc1ccccc1C(C)NC(=O)c1cc(C2NC(=O)NC(C)=C2C(=O)Nc2ccc3[nH]ncc3c2)ccc1F` (stereo not drawn), for which the concentration for half-maximal inhibition (IC50) in assay [1] worked out at 0.4 µM; at Rhodopsin kinase GRK1, 16 µM. For `COC(=O)C1(NC(=O)c2cc(C3NC(=O)NC(C)=C3C(=O)Nc3ccc4[nH]ncc4c3)ccc2F)CCCCC1` (stereo not drawn), the IC50 in assay [1] was 0.16 µM; against Rhodopsin kinase GRK1 it was 83 µM.

Regarding `CC1=C(C(=O)Nc2ccc3[nH]ncc3c2)C(c2ccc(F)c(CC(=O)N(CCO)CCC(C)C)c2)NC(=O)N1` (stereo not drawn), the IC50 is 1.5 µM in assay [1] and more than 100 µM on Rhodopsin kinase GRK1. `CC1=C(C(=O)Nc2ccc3[nH]ncc3c2)C(c2ccc(F)c(CC(=O)N3CCOC(CCO)C3)c2)NC(=O)N1` (stereo not drawn) displayed an IC50 at Rhodopsin kinase GRK1 of more than 100 µM. Turning to `CCCOC1CCN(C(=O)Cc2cc(C3NC(=O)NC(C)=C3C(=O)Nc3ccc4[nH]ncc4c3)ccc2F)C1` (stereo not drawn), the 50% inhibitory concentration (IC50) in assay [1] was 1.6 µM; against Rhodopsin kinase GRK1 it was more than 100 µM.

As to `CCC(C)N(CO)C(=O)Cc1cc(C2NC(=O)NC(C)=C2C(=O)Nc2ccc3[nH]ncc3c2)ccc1F` (stereo not drawn), the half-inhibitory concentration (IC50) in assay [1] is 1.9 µM; against Rhodopsin kinase GRK1, more than 100 µM. As to `CC1=C(C(=O)Nc2ccc3[nH]ncc3c2)C(c2ccc(F)c(CC(=O)NC3CC(=O)N(C)C3)c2)NC(=O)N1` (stereo not drawn), the IC50 is 1.9 µM in assay [1] and more than 100 µM against Rhodopsin kinase GRK1. As to `CC1=C(C(=O)Nc2ccc3[nH]ncc3c2)C(c2ccc(F)c(C(=O)N(C)Cc3cc(C)[nH]n3)c2)NC(=O)N1` (stereo not drawn), the IC50 in assay [1] was 1.1 µM; against Rhodopsin kinase GRK1, more than 100 µM. Take `CC1=C(C(=O)Nc2ccc3[nH]ncc3c2)C(c2ccc(F)c(C(=O)NCCc3c(C)noc3C)c2)NC(=O)N1` (stereo not drawn): the IC50 was 0.64 µM in assay [1] and more than 100 µM on Rhodopsin kinase GRK1. At Rhodopsin kinase GRK1, `CC1=C(C(=O)Nc2ccc3[nH]ncc3c2)C(c2ccc(F)c(CC(=O)NCC3CCN(C4CC4)CC3)c2)NC(=O)N1` (stereo not drawn) came in with an IC50 of more than 100 µM. As to `COCc1noc(CNC(=O)c2cc(C3NC(=O)NC(C)=C3C(=O)Nc3ccc4[nH]ncc4c3)ccc2F)n1` (stereo not drawn), the half-inhibitory concentration (IC50) was found to be 0.25 µM in assay [1] and 30 µM on Rhodopsin kinase GRK1. The corresponding values for `CCCCCCC(C)NC(=O)c1cc(C2NC(=O)NC(C)=C2C(=O)Nc2ccc3[nH]ncc3c2)ccc1F` (stereo not drawn) are 4.1 µM and more than 100 µM. `CC1=C(C(=O)Nc2ccc3[nH]ncc3c2)C(c2ccc(F)c(CCC(=O)NCc3ncc(C)o3)c2)NC(=O)N1` (stereo not drawn): at Rhodopsin kinase GRK1, the 50% inhibitory concentration (IC50) was more than 100 µM. As for `CC1=C(C(=O)Nc2ccc3[nH]ncc3c2)C(c2ccc(F)c(CC(=O)NCc3ccc(C#N)nc3)c2)NC(=O)N1` (stereo not drawn), the IC50 is 1.4 µM in assay [1] and more than 100 µM on Rhodopsin kinase GRK1.
